± gives the uncertainty stated by the source.
Experiment: xn = mol fraction of the nth substance listed

CS(C)=O + CO
Conditions | viscosity [mPa·s]
298.15 K, 101 kPa, x1 = 0.2 | 0.705 ± 0.012
298.15 K, 101 kPa, x1 = 0.4 | 0.942 ± 0.016
298.15 K, 101 kPa, x1 = 0.6 | 1.212 ± 0.021
298.15 K, 101 kPa, x1 = 0.8 | 1.581 ± 0.026
298.15 K, 101.3 kPa, x1 = 0.0439 | 0.583 ± 0.031
298.15 K, 101.3 kPa, x1 = 0.093 | 0.616 ± 0.033
298.15 K, 101.3 kPa, x1 = 0.1279 | 0.642 ± 0.034
298.15 K, 101.3 kPa, x1 = 0.2139 | 0.708 ± 0.037
298.15 K, 101.3 kPa, x1 = 0.2908 | 0.792 ± 0.04
298.15 K, 101.3 kPa, x1 = 0.3809 | 0.884 ± 0.044
298.15 K, 101.3 kPa, x1 = 0.4902 | 1.03 ± 0.051
298.15 K, 101.3 kPa, x1 = 0.6224 | 1.259 ± 0.06
298.15 K, 101.3 kPa, x1 = 0.7858 | 1.564 ± 0.073
298.15 K, 101.3 kPa, x1 = 0.8923 | 1.768 ± 0.082
298.15 K, 101.3 kPa, x1 = 0.9667 | 1.923 ± 0.089
298.15 K, 101.31 kPa, x1 = 0.1531 | 0.66 ± 0.017
298.15 K, 101.31 kPa, x1 = 0.1961 | 0.695 ± 0.018
298.15 K, 101.31 kPa, x1 = 0.2939 | 0.792 ± 0.021
298.15 K, 101.31 kPa, x1 = 0.4044 | 0.917 ± 0.024
298.15 K, 101.31 kPa, x1 = 0.533 | 1.064 ± 0.028
298.15 K, 101.31 kPa, x1 = 0.6303 | 1.201 ± 0.031
298.15 K, 101.31 kPa, x1 = 0.7167 | 1.379 ± 0.036
298.15 K, 101.31 kPa, x1 = 0.817 | 1.586 ± 0.041
298.15 K, 101.31 kPa, x1 = 0.8886 | 1.737 ± 0.045
299 K, 101 kPa, x1 = 0.0375 | 0.9137
299 K, 101 kPa, x1 = 0.119 | 1.048
299 K, 101 kPa, x1 = 0.2599 | 1.264
299 K, 101 kPa, x1 = 0.3691 | 1.384
299 K, 101 kPa, x1 = 0.4937 | 1.964
299 K, 101 kPa, x1 = 0.7172 | 2.348
303.15 K, 101.3 kPa, x1 = 0.0439 | 0.544 ± 0.03
303.15 K, 101.3 kPa, x1 = 0.093 | 0.566 ± 0.031
303.15 K, 101.3 kPa, x1 = 0.1279 | 0.583 ± 0.031
303.15 K, 101.3 kPa, x1 = 0.2139 | 0.661 ± 0.035
303.15 K, 101.3 kPa, x1 = 0.2908 | 0.741 ± 0.038
303.15 K, 101.3 kPa, x1 = 0.3809 | 0.82 ± 0.042
303.15 K, 101.3 kPa, x1 = 0.4902 | 0.937 ± 0.047
303.15 K, 101.3 kPa, x1 = 0.6224 | 1.11 ± 0.054
303.15 K, 101.3 kPa, x1 = 0.7858 | 1.368 ± 0.065
303.15 K, 101.3 kPa, x1 = 0.8923 | 1.573 ± 0.074
303.15 K, 101.3 kPa, x1 = 0.9667 | 1.713 ± 0.08
308.15 K, 101.31 kPa, x1 = 0.1531 | 0.581 ± 0.015
308.15 K, 101.31 kPa, x1 = 0.1961 | 0.612 ± 0.016
308.15 K, 101.31 kPa, x1 = 0.2939 | 0.694 ± 0.018
308.15 K, 101.31 kPa, x1 = 0.4044 | 0.798 ± 0.021
308.15 K, 101.31 kPa, x1 = 0.533 | 0.92 ± 0.024
308.15 K, 101.31 kPa, x1 = 0.6303 | 1.03 ± 0.027
308.15 K, 101.31 kPa, x1 = 0.817 | 1.336 ± 0.035
308.15 K, 101.31 kPa, x1 = 0.8886 | 1.454 ± 0.038
318.15 K, 101.31 kPa, x1 = 0.1531 | 0.514 ± 0.013
318.15 K, 101.31 kPa, x1 = 0.1961 | 0.544 ± 0.014
318.15 K, 101.31 kPa, x1 = 0.2939 | 0.613 ± 0.016
318.15 K, 101.31 kPa, x1 = 0.533 | 0.804 ± 0.021
318.15 K, 101.31 kPa, x1 = 0.6303 | 0.894 ± 0.023
318.15 K, 101.31 kPa, x1 = 0.817 | 1.141 ± 0.03
318.15 K, 101.31 kPa, x1 = 0.8886 | 1.194 ± 0.031

CCCCC + CCCCO
298.15 K, 101 kPa
Conditions | viscosity [mPa·s]
x2 = 0.1233 | 0.258 ± 0.003
x2 = 0.2435 | 0.319 ± 0.004
x2 = 0.4175 | 0.481 ± 0.005
x2 = 0.4935 | 0.609 ± 0.006
x2 = 0.5883 | 0.809 ± 0.008
x2 = 0.6892 | 1.042 ± 0.01
x2 = 0.7941 | 1.44 ± 0.014
x2 = 0.869 | 1.832 ± 0.017

CCCCCCCO + CCCCCC
viscosity [mPa·s], 101.33 kPa
Conditions | 303.15 K | 313.15 K
x1 = 0.0308 | 0.2866 ± 0.0041 | 0.2693 ± 0.004
x1 = 0.0919 | 0.3254 ± 0.0043 | 0.294 ± 0.0041
x1 = 0.1567 | 0.3966 ± 0.0047 | 0.3446 ± 0.0044
x1 = 0.2496 | 0.5095 ± 0.0054 | 0.4493 ± 0.005
x1 = 0.4018 | 0.7642 ± 0.0071 | 0.6611 ± 0.0064
x1 = 0.4831 | 0.9566 ± 0.0089 | 0.7663 ± 0.0074
x1 = 0.578 | 1.248 ± 0.012 | 0.9882 ± 0.0093
x1 = 0.6838 | 1.776 ± 0.017 | 1.348 ± 0.013
x1 = 0.7882 | 2.479 ± 0.024 | 1.832 ± 0.018
x1 = 0.8946 | 3.522 ± 0.034 | 2.473 ± 0.026
x1 = 0.9642 | 4.384 ± 0.041 | 3.175 ± 0.034

CCCCC + c1ccccc1
298.15 K, 101.33 kPa
Conditions | viscosity [mPa·s]
x2 = 0.1622 | 0.241 ± 0.006
x2 = 0.3515 | 0.274 ± 0.007
x2 = 0.4439 | 0.295 ± 0.008
x2 = 0.5608 | 0.328 ± 0.009
x2 = 0.6851 | 0.375 ± 0.01
x2 = 0.8001 | 0.434 ± 0.011
x2 = 0.9056 | 0.505 ± 0.013

C[N+](C)(C)CCC[n+]1ccccc1.N#C[N-]C#N.N#C[N-]C#N + CCO
viscosity [mPa·s], 100 kPa
Conditions | 293.15 K | 313.15 K | 323.15 K
x1 = 0.7003 | – | – | 75.75 ± 7.6
x1 = 0.7998 | 614.5 ± 78 | 161.5 ± 17 | 99.22 ± 10

CCOC(=O)C(C)O (stereo not drawn) + CCC(C)=O
101 kPa
Conditions | viscosity [mPa·s]
298.15 K, x1 = 0.6999 | 1.375 ± 0.015
308.15 K, x1 = 0.8 | 1.345 ± 0.014
308.15 K, x1 = 0.9001 | 1.595 ± 0.017
318.15 K, x1 = 0.1999 | 0.4415 ± 0.0061

CCN(CC)S(C)(=O)=O + CCCO
303.15 K, 101.33 kPa
Conditions | viscosity [mPa·s]
x1 = 0.0661 | 16100 ± 1700
x1 = 0.1423 | 15830 ± 1700
x1 = 0.2148 | 16120 ± 1700
x1 = 0.3057 | 16930 ± 1800
x1 = 0.3821 | 17930 ± 1900
x1 = 0.4421 | 18840 ± 2000
x1 = 0.5219 | 20390 ± 2200
x1 = 0.5944 | 22040 ± 2500
x1 = 0.685 | 24610 ± 2800
x1 = 0.7587 | 27160 ± 3200
x1 = 0.8085 | 29250 ± 3500
x1 = 0.8907 | 33340 ± 4000

CS(C)=O + CCCCCCCO
101 kPa
Conditions | viscosity [mPa·s]
303.15 K, x1 = 0.1547 | 4.098 ± 0.036
303.15 K, x1 = 0.3356 | 3.3 ± 0.029
303.15 K, x1 = 0.4628 | 2.842 ± 0.025
303.15 K, x1 = 0.5727 | 2.55 ± 0.023
303.15 K, x1 = 0.6715 | 2.336 ± 0.021
303.15 K, x1 = 0.7519 | 2.179 ± 0.02
303.15 K, x1 = 0.8247 | 2.052 ± 0.018
303.15 K, x1 = 0.8847 | 1.987 ± 0.018
303.15 K, x1 = 0.9327 | 1.891 ± 0.017
313 K, x1 = 0.1239 | 3.068 ± 0.08
313 K, x1 = 0.2133 | 2.75 ± 0.071
313 K, x1 = 0.2979 | 2.528 ± 0.066
313 K, x1 = 0.4847 | 2.188 ± 0.057
313 K, x1 = 0.5993 | 1.998 ± 0.052
313 K, x1 = 0.7039 | 1.839 ± 0.048
313 K, x1 = 0.8016 | 1.743 ± 0.045
313 K, x1 = 0.9028 | 1.621 ± 0.042

CS(C)=O + Cc1ccc(C)cc1
viscosity [mPa·s], 101 kPa
Conditions | x1 = 0.0993 | x1 = 0.2067 | x1 = 0.3019 | x1 = 0.4 | x1 = 0.5042 | x1 = 0.59 | x1 = 0.6956 | x1 = 0.801 | x1 = 0.8963
293.15 K | 0.695 ± 0.018 | 0.771 ± 0.02 | 0.857 ± 0.023 | 0.935 ± 0.025 | 1.032 ± 0.027 | 1.2 ± 0.032 | 1.372 ± 0.036 | 1.586 ± 0.042 | 1.84 ± 0.048
303.15 K | 0.612 ± 0.016 | 0.676 ± 0.018 | 0.744 ± 0.02 | 0.828 ± 0.022 | 0.913 ± 0.024 | 1.027 ± 0.027 | 1.167 ± 0.031 | 1.339 ± 0.035 | 1.557 ± 0.041
313.15 K | 0.551 ± 0.015 | 0.605 ± 0.016 | 0.661 ± 0.018 | 0.728 ± 0.019 | 0.787 ± 0.021 | 0.89 ± 0.024 | 1.004 ± 0.027 | 1.142 ± 0.03 | 1.302 ± 0.034
323.15 K | 0.49 ± 0.013 | 0.555 ± 0.015 | 0.582 ± 0.015 | 0.636 ± 0.017 | 0.705 ± 0.019 | 0.768 ± 0.02 | 0.861 ± 0.023 | 0.971 ± 0.026 | 1.1 ± 0.029

CCOC(=O)C(C)O (stereo not drawn) + Cc1ccccc1
101 kPa
Conditions | viscosity [mPa·s]
298.15 K, x1 = 0.7999 | 1.695 ± 0.018
303.15 K, x1 = 0.3 | 0.7345 ± 0.0085
303.15 K, x1 = 0.7 | 1.295 ± 0.014
313.15 K, x1 = 0.4 | 0.7225 ± 0.0084

CCC(N)=O + O
298.15 K, 101 kPa
Conditions | viscosity [mPa·s]
x1 = 0.003097 | 0.919 ± 0.18
x1 = 0.0145 | 1.025 ± 0.2
x1 = 0.03165 | 1.188 ± 0.24
x1 = 0.06563 | 1.536 ± 0.31
x1 = 0.1487 | 3.03 ± 0.61
x1 = 0.3724 | 5.98 ± 1.2

CC1(C)OCC(CO)O1 (stereo not drawn) + OCC(O)CO
viscosity [mPa·s], 101 kPa
Conditions | x1 = 0.1 | x1 = 0.2015 | x1 = 0.3 | x1 = 0.4012 | x1 = 0.499 | x1 = 0.6002 | x1 = 0.7 | x1 = 0.801 | x1 = 0.9003
298.15 K | 803.5 ± 46 | 702.6 ± 39 | 600.8 ± 31 | 502.2 ± 25 | 407.7 ± 19 | 319.4 ± 14 | 243.3 ± 9.3 | 163.1 ± 5.4 | 84.15 ± 2.3
308.15 K | 356.9 ± 16 | 310 ± 13 | 262 ± 11 | 212.8 ± 8.3 | 167.1 ± 6.2 | 129.5 ± 4.5 | 97.75 ± 3.2 | 69.56 ± 2.1 | 35.83 ± 1.1
318.15 K | 175.4 ± 6.6 | 150 ± 5.4 | 123.5 ± 4.3 | 98.86 ± 3.3 | 75.9 ± 2.5 | 54.95 ± 1.9 | 43.91 ± 1.5 | 31.63 ± 1.1 | 16.65 ± 0.52
